Source: DBAASP
Converted amounts (≈) assume the structure as drawn. “And” between values parts separate entries of the source, which are not always exact repeats. Equal entries are not always repeated.

Legend:
Experiment in all cases: ≥ marks a high value that may be exact or a test limit, other limits are often not marked, values filed in µg/mL are converted to µM
[1] = test system: Klebsiella pneumoniae ATCC 10031
[2] = test system: Shigella dysenteriae ATCC 9752
[3] = test system: Micrococcus luteus ATCC 4698
[4] = test system: Staphylococcus aureus KCTC 3881
[5] = test system: Proteus mirabilis ATCC 25933
[6] = test system: Bacillus subtilis ATCC 6633
[7] = test system: Escherichia coli KCTC 2433
[8] = test system: Pseudomonas aeruginosa ATCC 9027
[9] = test system: Staphylococcus epidermidis ATCC 12228
[10] = test system: Candida albicans ATCC 36232
[11] = test system: Bacillus subtilis DELTA
[12] = test system: Zymomonas mobilis ATCC 10988
[13] = test system: Escherichia coli DH5alpha
[14] = test system: Pseudomonas aeruginosa 3552
[15] = test system: Pseudomonas aeruginosa 50
[16] = test system: Escherichia coli 804
[17] = test system: Acinetobacter baumannii ATCC 19606
[18] = test system: Staphylococcus aureus ATCC 29213
[19] = test system: Pseudomonas aeruginosa ATCC 27853
[20] = test system: Acinetobacter baumannii 97830
[21] = test system: Staphylococcus aureus 113
[22] = test system: Acinetobacter baumannii 9931
[23] = test system: Escherichia coli 780
[24] = test system: Staphylococcus aureus 75
[25] = test system: Pseudomonas aeruginosa 73
[26] = test system: Klebsiella pneumoniae ATCC 700603
[27] = test system: Bacillus subtilis ATCC 23857
[28] = test system: Aeromonas salmonicida 99-1
[29] = test system: Staphylococcus epidermidis C621
[30] = test system: Candida albicans C627
[31] = test system: Pseudomonas aeruginosa K799
[32] = test system: Pseudomonas aeruginosa Z61
[33] = test system: Escherichia coli UB1005
[34] = test system: Escherichia coli DC2
[35] = test system: Salmonella enterica serovar typhimurium MS7953s
[36] = test system: Salmonella enterica subsp. enterica serovar Typhimurium ATCC 14028s
[37] = test system: Aeromonas salmonicida 97-4
[38] = test system: Aeromonas salmonicida A449
[39] = test system: Escherichia coli CGSC 4908
[40] = test system: Staphylococcus aureus C623
[41] = test system: Candida tropicalis
[42] = test system: Candida albicans ATCC 10231
[43] = test system: Candida glabrata DSM 11226
[44] = test system: Staphylococcus aureus ATCC 25923
[45] = test system: Pseudomonas aeruginosa ATCC 27857
[46] = test system: Bacillus cereus PCM 2003
[47] = test system: Escherichia coli ATCC 25922
[48] = test system: Candida krusei DSM 6128

CC(C)C[C@H](NC(=O)[C@H](CC(C)C)NC(=O)[C@H](CC(C)C)NC(=O)[C@@H]1CCCN1C(=O)[C@H](CC(C)C)NC(=O)[C@@H](N)Cc1ccccc1)C(=O)N[C@@H](C)C(=O)NCC(=O)N[C@@H](CC(C)C)C(=O)N1CCC[C@H]1C(=O)N[C@@H](CC(C)C)C(=O)N[C@@H](CCCCN)C(=O)N[C@@H](CC(C)C)C(=O)N[C@H]1CSSC[C@@H](C(=O)O)NC(=O)[C@H](CCCCN)NC(=O)[C@H](CCCCN)NC(=O)[C@H](Cc2ccccc2)NC(=O)[C@H](CC(C)C)NC(=O)[C@H](Cc2ccccc2)NC1=O [FLPLLLAGLPLKLCFLFKKC]
MIC [1]: ≥ 43.9 µM | MIC [2]: ≥ 43.9 µM | MIC [3]: 2.74 µM (≈ 6.24 µg/mL) | MIC [4]: 5.49 µM (≈ 12.5 µg/mL) | MIC [5]: ≥ 43.9 µM | MIC [6]: 21.9 µM (≈ 50 µg/mL) | MIC [7]: ≥ 43.9 µM | MIC [8]: > 43.9 µM | MIC [9]: 21.9 µM (≈ 50 µg/mL) | MIC [10]: 21.9 µM (≈ 50 µg/mL)

CC[C@H](C)[C@H](NC(=O)[C@H](CCCN=C(N)N)NC(=O)[C@H](CCC(N)=O)NC(=O)[C@@H](NC(=O)[C@@H](NC(=O)[C@H](CCCN=C(N)N)NC(=O)[C@H](CCCCN)NC(=O)[C@H](Cc1ccccc1)NC(C)=O)[C@@H](C)CC)C(C)C)C(=O)N[C@@H](CCCN=C(N)N)C(=O)N[C@@H](CC(=O)O)C(=O)N[C@@H](Cc1ccccc1)C(=O)N[C@@H](CC(C)C)C(=O)N[C@@H](CCCN=C(N)N)C(N)=O [FKRIVQRIRDFLR]
MIC [11]: 22.9 µM (≈ 40.9 µg/mL) | MIC [12]: ≥ 114 µM | MIC [13]: ≥ 57.2 µM

CC[C@H](C)[C@H](NC(=O)CNC(=O)[C@@H](NC(=O)[C@H](Cc1cnc[nH]1)NC(=O)[C@H](CCCCN)NC(=O)[C@H](CCCCN)NC(=O)[C@H](CC(C)C)NC(=O)[C@H](CCCCN)NC(=O)[C@H](Cc1c[nH]c2ccccc12)NC(=O)[C@@H](N)CCCCN)[C@@H](C)CC)C(=O)NCC(=O)N[C@@H](CCCCN)C(=O)N[C@@H](Cc1cnc[nH]1)C(=O)N[C@@H](Cc1ccccc1)C(=O)N[C@@H](CC(C)C)C(=O)N[C@@H](CO)C(=O)N[C@@H](C)C(=O)N[C@@H](CCCCN)C(=O)N[C@@H](CCCCN)C(=O)N[C@@H](Cc1ccccc1)C(N)=O [KWKLKKHIGIGKHFLSAKKF]
MIC [14]: 8 µM and 4 µM

NC(=O)[C@H](Cc1ccccc1)NC(=O)[C@H](Cc1c[nH]c2ccccc12)NC(=O)[C@H](CCCN=C(N)N)NC(=O)[C@H](Cc1c[nH]c2ccccc12)NC(=O)[C@H](Cc1c[nH]c2ccccc12)NC(=O)[C@H](Cc1c[nH]c2ccccc12)NC(=O)[C@H](CCCN=C(N)N)NC(=O)[C@H](Cc1c[nH]c2ccccc12)NC(=O)[C@@H](N)Cc1ccccc1 [FWRWWWRWF]
MIC [15]: ≥ 128 µM | MIC [16]: ≥ 64 µM | MIC [17]: 64 µM (≈ 99.5 µg/mL) | MIC [18]: 4 µM (≈ 6.22 µg/mL) | MIC [19]: > 128 µM | MIC [20]: ≥ 32 µM | MIC [21]: 8 µM (≈ 12.4 µg/mL) | MIC [22]: ≥ 32 µM | MIC [23]: ≥ 32 µM | MIC [24]: 8 µM (≈ 12.4 µg/mL) | MIC [25]: ≥ 128 µM | MIC [8]: 128 µM (≈ 199 µg/mL) | MIC [26]: 16 µM (≈ 24.9 µg/mL) | MIC [9]: 4 µM (≈ 6.22 µg/mL) | MIC [27]: 2 µM (≈ 3.11 µg/mL)

CC[C@H](C)[C@H](NC(=O)[C@H](CO)NC(=O)[C@H](CCCCN)NC(=O)[C@@H](NC(=O)[C@@H](NC(=O)[C@H](CC(=O)O)NC(=O)[C@H](CCC(=O)O)NC(=O)[C@@H](NC(=O)[C@H](CO)NC(=O)[C@@H](N)CCCNC(=N)N)[C@@H](C)O)[C@@H](C)CC)[C@@H](C)CC)C(=O)N[C@@H](CO)C(=O)NCC(=O)NCC(=O)NCC(=O)N[C@@H](Cc1ccccc1)C(=O)N[C@@H](CC(C)C)C(=O)N[C@@H](CC(N)=O)C(=O)N[C@@H](C)C(=O)N[C@@H](CCSC)C(=O)N[C@@H](CC(N)=O)C(=O)N[C@@H](C)C(C)=O [RSTEDIIKSISGGGFLNAMNA]
MIC [28]: 29.3 µM (≈ 63.9 µg/mL) | MIC [29]: 29.3 µM (≈ 63.9 µg/mL) | MIC [30]: 29.3 µM (≈ 63.9 µg/mL) | MIC [31]: 29.3 µM (≈ 63.9 µg/mL) | MIC [32]: 29.3 µM (≈ 63.9 µg/mL) | MIC [33]: 29.3 µM (≈ 63.9 µg/mL) | MIC [34]: 29.3 µM (≈ 63.9 µg/mL) | MIC [35]: 29.3 µM (≈ 63.9 µg/mL) | MIC [36]: 29.3 µM (≈ 63.9 µg/mL) | MIC [37]: 29.3 µM (≈ 63.9 µg/mL) | MIC [38]: 29.3 µM (≈ 63.9 µg/mL) | MIC [39]: 29.3 µM (≈ 63.9 µg/mL) | MIC [40]: 29.3 µM (≈ 63.9 µg/mL)

CSCC[C@H](NC(=O)[C@H](C)NC(=O)[C@H](CCCN=C(N)N)NC(=O)[C@H](CCCCN)NC(=O)[C@H](Cc1c[nH]c2ccccc12)NC(=O)[C@H](CCC(N)=O)NC(=O)[C@H](Cc1ccccc1)NC(=O)[C@@H](N)CS)C(=O)N[C@@H](CCCN=C(N)N)C(=O)N[C@@H](CCCCN)C(=O)N[C@H](C(=O)N[C@@H](CCCN=C(N)N)C(N)=O)C(C)C [CFQWKRAMRKVR]
MIC [41]: ≥ 155 µM | MIC [42]: > 155 µM | MIC [43]: ≥ 155 µM | MIC [44]: 39.2 µM (≈ 63 µg/mL) | MIC [45]: ≥ 77.7 µM | MIC [46]: ≥ 155 µM | MIC [47]: 9.94 µM (≈ 16 µg/mL) | MIC [9]: 2.49 µM (≈ 4 µg/mL) | MIC [48]: ≥ 155 µM
